Test results published in patent publication US6537967B1, “Pentamer peptide amide, ALGPGNH2, which inhibits viral infectivity and methods of use thereof” (Tripep AB, priority 2001, dated 2003).
Peptide text beside a SMILES is read from it.

How the values were obtained:
Assay type in all cases: cell-based
[1] = system: HIV-1 clinical isolate 1; assay: HIV-1 clinical isolate 1 infectivity assay in PBMC (p24 in culture supernatant); conditions: FIG. 2
Method: (§1) In this example, the methods that were used to analyze the ability of ALGPG-NH2 (SEQ. ID. NO.: 1) to inhibit HIV- l replication are disclosed. HIV-1 SF-2 stock was prepared from HUT78 cells and two clinical isolates were prepared from donor's peripheral blood mononuclear cells (PBMC). The virus infected cells were propagated and maintained in RPMI 1640 medium supplemented with 10% heat inactivated fetal bovine serum (GIBCO Laboratories) with penicillin and streptomycin (100 μg/ml each). PBMCs were purified by Ficoll-Hypaque density gradient centrifugation and stimulated with phytohemagglutinin (KEBO laboratories, Sweden) for three days in RPMI 1640 medium supplemented with 10% heat inactivated fetal bovine serum (GIBCO Laboratories) with penicillin and streptomycin (100 μg/ml each).
(§2) The infectivity assays of the HIV-1 clinical isolates were performed, as above, in PBMC, which were stimulated for three days with 2.5 μg/ml of phytohemagglutinin (DIFCO, New Jersey). Cells were cultured in RPMI 1640 medium supplemented with 10% (v/v) heat-inactivated fetal bovine serum (FBS), penicillin (100 u/ml), and streptomycin (100 u/ml), all available through GIBCO, and Polybrene (2 μg/ml), available through Sigma. […] The production of p24 in the culture supernatent was monitored using a commercially available HIV p24 antigen detection kit (ELISA kit from Abbott Laboratories, North Chicago, U.S.A.).

[2] = system: HIV-1 SF-2; assay: HIV-1 SF-2 infectivity assay in H9 cells (RT activity and p24 in culture supernatant); conditions: 25 TCID50, FIG. 1
Method: as §1
Approximately 10^5 of H9 cells were infected with HIV-1 SF-2, obtained as described above, at 25 TCID50 to test the inhibitory effect of ALGPG-NH2 (SEQ. ID. NO.: 1). The H9 cells were resuspended with or without ALGPG-NH2 (SEQ. ID. NO.: 1) (at approximately 5 μM, 20 μM, and […]) in 1 ml of RPMI 1640 medium supplemented with 10% (v/v) heat-inactivated fetal bovine serum (FBS), penicillin (100 μ/ml), and streptomycin (100 u/ml), all available through GIBCO, and Polybrene (2 μg/ml), available through Sigma. Thereafter, viruses were added at 25 TCID50 in a volume of 20-30 μl. Cells were incubated with virus at 37° C. for 1 hr then pelleted at 170×g for 7 minutes. The cells were then washed three times in RPMI medium with or without peptides at room temperature and pelleted at 170×g for 7 minutes, as above. […]
Culture supernatants were collected and analyzed when the medium was changed at 4, 7, 10, and 14 days post infection. […] The amount of RT was determined with the aid of a regression line of standards. The presence of p24 in the supernatants was determined using a commercially available HIV p24 antigen detection kit (ELISA kit from Abbott Laboratories, North Chicago, U.S.A.).

[3] = system: HIV-1 clinical isolate 2; assay: HIV-1 clinical isolate 2 infectivity assay in PBMC (p24 in culture supernatant); conditions: FIG. 2
Method: as §1, §2

Compound: CC(C)C[C@H](NC(=O)[C@H](C)N)C(=O)NCC(=O)N1CCC[C@H]1C(=O)NCC(N)=O [ALGPG-NH2] (H-ALGPG-NH2; N-terminus assumed)
- inhibition of isolate 1 ([1]; 20 μM): approximately 20%
- inhibition of isolate 1 ([1]; 100 μM): almost complete
- inhibition of HIV-1 SF-2 infection ([2]; 5 μM peptide amide): approximately 50%
- inhibition of HIV-1 SF-2 infection ([2]; 20 μM peptide amide): almost complete
- inhibition of HIV-1 SF-2 infection ([2]; 100 μM peptide amide): almost complete
- inhibition of isolate 2 ([3]; 20 μM): approximately 50%
- inhibition of isolate 2 ([3]; 100 μM): almost complete
